Assay results published in US20230081426A1, “COMPOUNDS AND METHODS FOR KRAS MODULATION AND INDICATIONS THEREFOR” (Plexxikon Inc., priority 2020, published 2023).

Tests used:
[1] = biological target: T1, G12D-mutant human KRAS (amino acid residues 1-188) (Homo sapiens, UniProt P01116, G12D); test: KRAS Binding Disruption Assay (AlphaScreen; biotinylated KRpep-2d analogue or RAF1-RBD), G12D; settings: KRAS G12D; geometric mean; read-out: KRAS GMean IC50 (uM) MUTATION: G12D
T1 construct: G12D or G12C-mutant human KRAS (amino acid residues 1-188) with FLAG tag; made in house; host or cells: E. coli
T1 sequence (P01116 1-188 isoform P01116-2 G12D): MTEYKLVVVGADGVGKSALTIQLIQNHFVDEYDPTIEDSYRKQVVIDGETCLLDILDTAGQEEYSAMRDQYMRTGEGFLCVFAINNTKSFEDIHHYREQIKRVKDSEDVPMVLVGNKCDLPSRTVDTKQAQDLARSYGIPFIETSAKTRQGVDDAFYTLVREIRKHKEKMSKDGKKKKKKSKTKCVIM
Method in brief: (§1)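 Compounds are titrated against 5-20 nM mutant KRAS and 5-20 nM of either a biotinylated KRpep-2d analogue or RAF1-RBD, incubated 1 h at 25° C. Disruption is detected as reduced Alpha signal after 1 h with donor and acceptor beads at 10 μg/mL.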

[2] = biological target: T2, G12C-mutant human KRAS (amino acid residues 1-188) (Homo sapiens, UniProt P01116, G12C); test: KRAS Binding Disruption Assay (AlphaScreen; biotinylated KRpep-2d analogue or RAF1-RBD), G12C; settings: geometric mean, read-out: KRAS GMean IC50 (uM) MUTATION: G12C
T2 construct: G12D or G12C-mutant human KRAS (amino acid residues 1-188) with FLAG tag; made in house; host or cells: E. coli
T2 sequence (P01116 1-188 isoform P01116-2 G12C): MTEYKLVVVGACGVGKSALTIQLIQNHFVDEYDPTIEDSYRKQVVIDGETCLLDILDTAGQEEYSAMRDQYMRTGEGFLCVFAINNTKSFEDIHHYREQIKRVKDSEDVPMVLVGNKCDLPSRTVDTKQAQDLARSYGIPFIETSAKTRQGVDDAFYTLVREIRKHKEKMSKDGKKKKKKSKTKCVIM
Method in brief: as §1

| Structure (SMILES) | IC50 [1] [µM] | IC50 [2] [µM] |
| --- | --- | --- |
| CN(C)CCNc1nc(N2C[C@H]3CC[C@@H](C2)N3)c2ccc(-c3cc(O)cc4ccccc34)cc2n1 [P-0022, 4-(4-((1R,5S)-3,8-diazabicyclo[3.2.1]octan-3-yl)-2-((2-(dimethylamino)ethyl)amino)quinaz-olin-7-yl)naphthalen-2-ol] | 0.0001 to 10 | 10 to 100 |
| Oc1cc(-c2ccc3c(N4C[C@H]5CC[C@@H](C4)N5)nc(OCC4CCCOC4)nc3c2F)c2ccccc2c1 (stereo partly drawn) [P-0776, 4-(4-((1R,5S)-3,8-diazabicyclo[3.2.1]octan-3-yl)-8-fluoro-2-((tetrahydro-2H-pyran-3-yl)methoxy)quinazolin-7-yl)naphthalen-2-ol] | 0.0001 to 10 | 10 to 100 |
| Fc1cc(F)c2c(-c3c(F)cc4c(N5C[C@H]6CC[C@@H](C5)N6)nc(OCC56CCCN5CCC6)nc4c3F)c[nH]c2c1 [P-0806, 4-((1R,5S)-3,8-diazabicyclo[3.2.1]octan-3-yl)-7-(4,6-difluoro-1H-indol-3-yl)-6,8-difluoro-2-((tetrahydro-1H-pyrrolizin-7a(5H)-yl)methoxy)quinazoline] | 0.0001 to 10 | 0.0001 to 10 |
| OCC1(CO)CN(c2nc(N3C[C@H]4CC[C@@H](C3)N4)c3ccc(-c4cc(O)cc5ccccc45)c(F)c3n2)C1 [P-0686, (1-(4-((1R,5S)-3,8-diazabicyclo[3.2.1]octan-3-yl)-8-fluoro-7-(3-hydroxynaphthalen-1-yl)quinazolin-2-yl)azetidine-3,3-diyl)dimethanol] | 0.0001 to 10 | 100 to 1000 |
| CNCCc1nc(N2C[C@H]3CC[C@@H](C2)N3)c2ccc(-c3cc(O)cc4ccccc34)c(F)c2n1 [P-0754, 4-(4-((1R,5S)-3,8-diazabicyclo[3.2.1]octan-3-yl)-8-fluoro-2-(2-(methylamino)ethyl)quinazolin-7-yl)naphthalen-2-ol] | 0.0001 to 10 | 10 to 100 |
| CC(C)(COc1nc(N2C[C@H]3CC[C@@H](C2)N3)c2ccc(-c3cc(O)cc4ccccc34)c(F)c2n1)NC(=O)OCc1ccccc1 [P-0735, benzyl (1-((4-((1R,5S)-3,8-diazabicyclo[3.2.1]octan-3-yl)-8-fluoro-7-(3-hydroxynaphthalen-1-yl)quinazolin-2-yl)oxy)-2-methylpropan-2-yl)carbamate] | 0.0001 to 10 | 100 to 1000 |
| Oc1cc(-c2ccc3c(N4C[C@H]5CC[C@@H](C4)N5)nc(OCC4(O)CCCC4)nc3c2F)c2ccccc2c1 [P-0721, 4-(4-((1R,5S)-3,8-diazabicyclo[3.2.1]octan-3-yl)-8-fluoro-2-((1-hydroxycyclopentyl)methoxy)quinazo-lin-7-yl)naphthalen-2-ol] | 0.0001 to 10 | 10 to 100 |
| CN1C[C@H](O)C[C@H]1COc1nc(N2C[C@H]3CC[C@@H](C2)N3)c2ccc(-c3cc(O)cc4ccccc34)c(F)c2n1 [P-0659, (3R,5S)-5-(((4-((1R,5S)-3,8-diazabicyclo[3.2.1]octan-3-yl)-8-fluoro-7-(3-hydroxynaphthalen-1-yl)quinazolin-2-yl)oxy)methyl)-1-methylpyrrolidin-3-ol] | 0.0001 to 10 | 0.0001 to 10 |
| COC(=O)C(C)(C)COc1nc(N2C[C@H]3CC[C@@H](C2)N3)c2ccc(-c3cc(O)cc4ccccc34)c(F)c2n1 [P-0648, methyl 3-((4-((1R,5S)-3,8-diazabicyclo[3.2.1]octan-3-yl)-8-fluoro-7-(3-hydroxynaphthalen-1-yl)quinazolin-2-yl)oxy)-2,2-dimethylpropanoate] | 0.0001 to 10 | 10 to 100 |
| OCCOc1nc(N2C[C@H]3CC[C@@H](C2)N3)c2ccc(-c3cc(O)cc4ccccc34)c(F)c2n1 [P-0784, 4-(4-((1R,5S)-3,8-diazabicyclo[3.2.1]octan-3-yl)-8-fluoro-2-(2-hydroxyethoxy)quinazolin-7-yl)naphthalen-2-ol] | 0.0001 to 10 | 10 to 100 |
| CN1CCC[C@H]1COc1nc(N2C[C@H]3CC[C@@H](C2)N3)c2cc(F)c(-c3c[nH]c4ncccc34)c(F)c2n1 [P-0780, 4-((1R,5S)-3,8-diazabicyclo[3.2.1]octan-3-yl)-6,8-difluoro-2-(((S)-1-methylpyrrolidin-2-yl)methoxy)-7-(1H-pyrrolo[2,3-b]pyridin-3-yl)quinazoline] | 10 to 100 | 100 to 1000 |
| CCN1CCC[C@H]1COc1nc(N2C[C@H]3CC[C@@H](C2)N3)c2ccc(-c3cc(O)cc4ccccc34)c(F)c2n1 [P-0667, 4-(4-((1R,5S)-3,8-diazabicyclo[3.2.1]octan-3-yl)-2-(((S)-1-ethylpyrrolidin-2-yl)methoxy)-8-fluoroquinazolin-7-yl)naphthalen-2-ol] | 0.0001 to 10 | 0.0001 to 10 |
| CN1CCC[C@H]1COc1nc(N2CC3CCCC(C2)N3)c2cc(Cl)c(-c3cc(O)cc4ccccc34)c(F)c2n1 [P-0039, 4-(4-(3,9-diazabicyclo[3.3.1]nonan-3-yl)-6-chloro-8-fluoro-2-(((S)-1-methylpyrrolidin-2-yl)methoxy)quinazolin-7-yl)naphthalen-2-ol] | 0.0001 to 10 | 0.0001 to 10 |
| CN1CCC[C@H]1COc1nc(N2C[C@H]3CC[C@@H](C2)N3)c2ccc(-c3nccc4ccc(F)cc34)c(F)c2n1 [P-0781, 4-((1R,5S)-3,8-diazabicyclo[3.2.1]octan-3-yl)-8-fluoro-7-(7-fluoroisoquinolin-1-yl)-2-(((S)-1-methylpyrrolidin-2-yl)methoxy)quinazoline] | 10 to 100 | 100 to 1000 |
| Oc1cc(-c2ccc3c(N4C[C@H]5CC[C@@H](C4)N5)nc(OCCn4ccnc4)nc3c2F)c2ccccc2c1 [P-0803, 4-(2-(2-(1H-imidazol-1-yl)ethoxy)-4-((1R,5S)-3,8-diazabicyclo[3.2.1]octan-3-yl)-8-fluoroquinazolin-7-yl)naphthalen-2-ol] | 0.0001 to 10 | 0.0001 to 10 |
| Oc1cc(-c2ccc3c(N4C[C@H]5CC[C@@H](C4)N5)nc(OCC4CC(F)(F)C4(F)F)nc3c2F)c2ccccc2c1 (stereo partly drawn) [P-0740, 4-(4-((1R,5S)-3,8-diazabicyclo[3.2.1]octan-3-yl)-8-fluoro-2-((2,2,3,3-tetrafluorocyclobutyl)methoxy)quinaz-olin-7-yl)naphthalen-2-ol] | 0.0001 to 10 | 10 to 100 |
| Oc1cc(-c2ccc3c(N4C[C@H]5CC[C@@H](C4)N5)nc(OCC4CCCC4(F)F)nc3c2F)c2ccccc2c1 (stereo partly drawn) [P-0739, 4-(4-((1R,5S)-3,8-diazabicyclo[3.2.1]octan-3-yl)-2-((2,2-difluorocyclopentyl)methoxy)-8-fluoroquinazolin-7-yl)naphthalen-2-ol] | 0.0001 to 10 | 10 to 100 |

Other lines, results leading:

| IC50 [1] [µM] | IC50 [2] [µM] | Structure (SMILES) |
| --- | --- | --- |
| 0.0001 to 10 | 10 to 100 | Oc1cc(-c2ccc3c(N4C[C@H]5CC[C@@H](C4)N5)nc(OCCN4CCOCC4)nc3c2F)c2ccccc2c1 [P-0695, 4-(4-((1R,5S)-3,8-diazabicyclo[3.2.1]octan-3-yl)-8-fluoro-2-(2-morpholinoethoxy)quinazolin-7-yl)naphthalen-2-ol] |
| 0.0001 to 10 | 10 to 100 | CC(F)(F)COc1nc(N2C[C@H]3CC[C@@H](C2)N3)c2ccc(-c3cc(O)cc4ccccc34)c(F)c2n1 [P-0748, 4-(4-((1R,5S)-3,8-diazabicyclo[3.2.1]octan-3-yl)-2-(2,2-difluoropropoxy)-8-fluoroquinazolin-7-yl)naphthalen-2-ol] |
| 0.0001 to 10 | 100 to 1000 | CC(C)(O)C1CN(c2nc(N3C[C@H]4CC[C@@H](C3)N4)c3ccc(-c4cc(O)cc5ccccc45)c(F)c3n2)C1 [P-0683, 4-(4-((1R,5S)-3,8-diazabicyclo[3.2.1]octan-3-yl)-8-fluoro-2-(3-(2-hydroxypropan-2-yl)azetidin-1-yl)quinazolin-7-yl)naphthalen-2-ol] |
| 0.0001 to 10 | 10 to 100 | Oc1cc(-c2ccc3c(N4C[C@H]5CC[C@@H](C4)N5)nc(OCc4cnco4)nc3c2F)c2ccccc2c1 [P-0716, 4-(4-((1R,5S)-3,8-diazabicyclo[3.2.1]octan-3-yl)-8-fluoro-2-(oxazol-5-ylmethoxy)quinazolin-7-yl)naphthalen-2-ol] |
| 0.0001 to 10 | 0.0001 to 10 | Cc1cccc2[nH]cc(-c3c(F)cc4c(N5C[C@H]6CC[C@@H](C5)N6)nc(OCC56CCCN5CCC6)nc4c3F)c12 [P-0790, 4-((1R,5S)-3,8-diazabicyclo[3.2.1]octan-3-yl)-6,8-difluoro-7-(4-methyl-1H-indol-3-yl)-2-((tetrahydro-1H-pyrrolizin-7a(5H)-yl)methoxy)quinazoline] |
| 0.0001 to 10 | 100 to 1000 | OCCCc1nc(N2C[C@H]3CC[C@@H](C2)N3)c2ccc(-c3cc(O)cc4ccccc34)c(F)c2n1 [P-0811, 4-(4-((1R,5S)-3,8-diazabicyclo[3.2.1]octan-3-yl)-8-fluoro-2-(3-hydroxypropyl)quinazolin-7-yl)naphthalen-2-ol] |
| 0.0001 to 10 | 10 to 100 | Oc1cc(-c2ccc3c(N4C[C@H]5CC[C@@H](C4)N5)nc(OCC4(O)CC4)nc3c2F)c2ccccc2c1 [P-0734, 4-(4-((1R,5S)-3,8-diazabicyclo[3.2.1]octan-3-yl)-8-fluoro-2-((1-hydroxycyclopropyl)methoxy)quinazo-lin-7-yl)naphthalen-2-ol] |
| 0.0001 to 10 | 10 to 100 | CN(C)C1CCN(c2nc(N3C[C@H]4CC[C@@H](C3)N4)c3ccc(-c4cc(O)cc5ccccc45)c(F)c3n2)C1 (stereo partly drawn) [P-0704, 4-(4-((1R,5S)-3,8-diazabicyclo[3.2.1]octan-3-yl)-2-(3-(dimethylamino)pyrrolidin-1-yl)-8-fluoroquinazolin-7-yl)naphthalen-2-ol] |
| 0.0001 to 10 | 0.0001 to 10 | N#CCCC(=O)N1[C@@H]2CC[C@H]1CN(c1nc(OCC34CCCN3CCC4)nc3c(F)c(-c4cc(O)cc5ccccc45)ccc13)C2 [P-0808, 4-((1R,5S)-3-(8-fluoro-7-(3-hydroxynaphthalen-1-yl)-2-((tetrahydro-1H-pyrrolizin-7a(5H)-yl)methoxy)quinazolin-4-yl)-3,8-diazabicyclo[3.2.1]octan-8-yl)-4-oxobutanenitrile] |
